Source: US8802663B2, “Pyrazole oxadiazole derivatives as S1P1 agonists” (Merck Serono SA, priority 2009, dated 2014)

How the values were obtained:
S1P1 [1] = target: T1, S1P1 (Homo sapiens (Human), UniProt P21453); experiment: Receptor binding assay, [33P]sphingosine 1-phosphate, membranes from CHO cells expressing S1P1; settings: CHO cell membranes, 25 pM [33P]sphingosine 1-phosphate
Protocol: (§1) Receptor binding assay: Membranes were prepared from CHO cells expressing S1P1 or S1P3 for use in ligand and […] binding studies. Cells were suspended in 50 mM TRIS, pH 7.4, 2 mM EDTA, 250 mM Sucrose (buffer A) and 1× Complete protease inhibitor cocktail (Roche), and disrupted at 4° C. by N2 decompression using a cell disruption bomb (Parr Instrument). Following centrifugation at 1000 RPM for 10 min at 4° C., the supernatant was suspended in buffer A and centrifuged again at 19000 RPM for 60 min at 4° C. The pellet was then suspended in 10 mM HEPES, pH 7.4, 1 mM EDTA, 250 mM Sucrose (Buffer B), and 1× Complete EDTA-free protease inhibitor cocktail and homogenized using a potter. Membranes were flash frozen in liquid N2 and stored at −80° C. [33P]sphingosine 1-phosphate (3000 Ci/mmol; American Radiolabeled Chemicals, Inc.) was added to test compounds in DMSO. Membranes and WGA SPA beads (GE Healthcare) were added to give a final volume of 100 μl in 96-well plates with assay concentrations of 25 pM or 10 pM [33P]sphingosine 1-phosphate (respectively for S1P1 or S1P3), 50 mM HEPES, pH 7.5, 5 mM MgCl2, 100 mM NaCl, 0.4% fatty acid-free BSA, 1-5 μg/well of proteins and 100 μg/well of WGA SPA beads. Binding was performed for 60 min at RT on a shaker and bound radioactivity was measured on a PerkinElmer 1450 MicroBeta counter. Specific binding was calculated by subtracting remaining radioactivity in the presence of 1000-fold excess of unlabeled SIP. Binding data were analyzed using the GraphPad Prism program.

S1P1 [2] = target: T1, S1P1; experiment: 35S-GTPγS binding, membranes from CHO cells expressing S1P1; assay type: biochemical; settings: CHO cell membranes
S1P3 = S1P3 (Homo sapiens (Human), UniProt Q99500); experiment: 35S-GTPγS binding, membranes from CHO cells expressing S1P3; assay type: biochemical; settings: CHO cell membranes
S1P3, sequence (Q99500 whole entry, species assumed): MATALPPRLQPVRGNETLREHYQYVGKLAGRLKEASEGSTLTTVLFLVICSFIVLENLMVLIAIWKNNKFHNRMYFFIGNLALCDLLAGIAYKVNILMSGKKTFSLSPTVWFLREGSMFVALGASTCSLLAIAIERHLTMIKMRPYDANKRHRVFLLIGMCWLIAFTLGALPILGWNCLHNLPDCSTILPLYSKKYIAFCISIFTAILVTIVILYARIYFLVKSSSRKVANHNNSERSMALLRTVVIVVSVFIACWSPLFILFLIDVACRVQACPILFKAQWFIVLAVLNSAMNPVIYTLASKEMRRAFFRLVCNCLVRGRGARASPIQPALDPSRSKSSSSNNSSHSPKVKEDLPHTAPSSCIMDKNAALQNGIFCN
Protocol: as §1
Measurements of 35S-GTPγS Binding: Membranes (1 to 10 μg protein) prepared as described above, were incubated in 96-well Scintiplates (PerkinElmer) with test compounds diluted in DMSO, in 180 μl of 20 mM HEPES, pH 7.4, 10 mM MgCl2, 2 μg/well Saponin, 0.2% fatty acid free BSA (Assay buffer), 140 mM NaCl and 1.7 μM GDP. The assay was initiated with the addition of 20 μl of 1.5 nM [35S]-GTPγS (1100 Ci/mmol; GE Healthcare) in assay buffer. After 60 min incubation at 30° C. on a shaker, plates were centrifuged for 10 min at 2000 RPM. Supernatant was discarded and membrane bound radioactivity was measured on a PerkinElmer 1450 MicroBeta counter. Triplicate samples were averaged and expressed as % response relative to S1P activation in absence of compound (n=2).

T1 sequence (P21453 whole entry, species assumed): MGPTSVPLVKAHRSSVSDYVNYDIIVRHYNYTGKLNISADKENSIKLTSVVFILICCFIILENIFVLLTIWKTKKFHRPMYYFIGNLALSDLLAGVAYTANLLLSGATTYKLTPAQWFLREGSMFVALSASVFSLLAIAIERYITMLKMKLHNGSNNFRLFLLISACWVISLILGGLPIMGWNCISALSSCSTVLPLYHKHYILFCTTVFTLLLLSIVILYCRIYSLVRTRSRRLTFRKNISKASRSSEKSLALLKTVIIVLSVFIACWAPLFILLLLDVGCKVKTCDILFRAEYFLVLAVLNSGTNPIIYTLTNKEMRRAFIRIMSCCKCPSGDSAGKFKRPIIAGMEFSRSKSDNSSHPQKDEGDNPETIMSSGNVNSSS

With “4-[4-[3-(2,5-difluorophenyl)-1,2,4-oxadiazol-5-yl]-1-(2-fluorophenyl)-1H-pyrazol-5-yl]pyridine [Example 8]” the Ki (S1P1 [1]) was 3 nM and the EC50 (S1P1 [2]) was 3 nM.

In the case of `Fc1ccc(F)c(-c2noc(-c3cnn(-c4ccccc4)c3-c3ccccc3)n2)c1` [Example 3, 3-(2,5-difluorophenyl)-5-(1,5-diphenyl-1H-pyrazol-4-yl)-1,2,4-oxadiazole], the Ki (S1P1 [1]) is reported as 8 nM and the EC50 (S1P1 [2]) is reported as 77 nM.

For `Cc1ccccc1-n1ncc(-c2nc(-c3cc(F)ccc3F)no2)c1-c1ccccc1` [Example 5, 3-(2,5-difluorophenyl)-5-(5-phenyl-1-o-tolyl-1H-pyrazol-4-yl)-1,2,4-oxadiazole], the Ki (S1P1 [1]) was 13 nM and the EC50 (S1P1 [2]) was 255 nM.

For `Fc1ccc(-n2ncc(-c3nc(-c4cc(F)ccc4F)no3)c2-c2ccccc2)cc1` [Example 6, 3-(2,5-difluorophenyl)-5-(1-(4-fluorophenyl)-5-phenyl-1H-pyrazol-4-yl)-1,2,4-oxadiazole], the Ki (S1P1 [1]) was 13 nM and the EC50 (S1P1 [2]) was 235 nM.

Compound `CC(C)Cn1ncc(-c2nc(-c3cc(F)ccc3F)no2)c1-c1ccccc1` [Example 12, 3-(2,5-difluorophenyl)-5-(1-isobutyl-5-phenyl-1H-pyrazol-4-yl)-1,2,4-oxadiazole] has a Ki (S1P1 [1]) of 7 nM and an EC50 (S1P1 [2]) of 36 nM.

`CCOC(=O)Cn1ncc(-c2nc(-c3cc(F)ccc3F)no2)c1-c1ccccc1` [Example 13, ethyl {4-[3-(2,5-difluorophenyl)-1,2,4-oxadiazol-5-yl]-5-phenyl-1H-pyrazol-1-yl}acetate] was tested, and the Ki (S1P1 [1]) was 23 nM and the EC50 (S1P1 [2]) was 96 nM.

`CC(C)Cn1ncc(-c2nc(-c3cc(F)ccc3F)no2)c1-c1ccncc1` [Example 19, 4-{4-[3-(2,5-difluorophenyl)-1,2,4-oxadiazol-5-yl]-1-isobutyl-1H-pyrazol-5-yl}pyridine] gave a Ki (S1P1 [1]) of 9 nM and an EC50 (S1P1 [2]) of 18 nM.

With `Fc1ccc(F)c(-c2noc(-c3cnn(C4CCCCC4)c3-c3ccncc3)n2)c1` [Example 23, 5-(1-cyclohexyl-5-(pyridin-4-yl)-1H-pyrazol-4-yl)-3-(2,5-difluorophenyl)-1,2,4-oxadiazole] the Ki (S1P1 [1]) was 5 nM and the EC50 (S1P1 [2]) was 4 nM.

In the case of `FC(F)(F)c1cccc(-c2noc(-c3cnn(C4CCCCC4)c3-c3ccncc3)n2)c1` [Example 28, 4-(1-cyclohexyl-4-{3-[3-(trifluoromethyl)phenyl]-1,2,4-oxadiazol-5-yl}-1H-pyrazol-5-yl)pyridine], the EC50 (S1P1 [2]) is reported as 16 nM and the EC50 (S1P3) is reported as 2660 nM.

`Fc1ccc(F)c(-c2noc(-c3cnn(C4CCCCC4)c3C3CCOCC3)n2)c1` [Example 31, 5-[1-cyclohexyl-5-(tetrahydro-2H-pyran-4-yl)-1H-pyrazol-4-yl]-3-(2,5-difluorophenyl)-1,2,4-oxadiazole] showed an EC50 (S1P1 [2]) of 12 nM and an EC50 (S1P3) of over 20000 nM.

`CC1CCCCC1n1ncc(-c2nc(-c3cc(F)ccc3F)no2)c1-c1ccncc1` (stereo not shown) [Example 34, 4-[4-[3-(2,5-difluorophenyl)-1,2,4-oxadiazol-5-yl]-1-(2-methylcyclohexyl)-1H-pyrazol-5-yl]pyridine] showed an EC50 (S1P1 [2]) of 6 nM and an EC50 (S1P3) of 1610 nM.

`CC(C)Cn1ncc(-c2nc(-c3cccc(C(F)(F)F)c3)no2)c1-c1ccncc1` [Example 37, 4-(1-isobutyl-4-{3-[3-(trifluoromethyl)phenyl]-1,2,4-oxadiazol-5-yl}-1H-pyrazol-5-yl)pyridine] was tested, and the EC50 (S1P1 [2]) was 9 nM and the EC50 (S1P3) was over 20000 nM.

With `CC(C)Cn1ncc(-c2nc(-c3ccc4[nH]ncc4c3)no2)c1-c1ccncc1` [Example 40, 5-[5-(1-isobutyl-5-pyridin-4-yl-1H-pyrazol-4-yl)-1,2,4-oxadiazol-3-yl]-1H-indazole] the EC50 (S1P1 [2]) was 11 nM and the EC50 (S1P3) was 523 nM.

Work on `CN(C)Cc1ccc(-c2noc(-c3cnn(C4CCCCC4)c3-c3ccncc3)n2)cc1` [Example 41, 1-{4-[5-(1-cyclohexyl-5-pyridin-4-yl-1H-pyrazol-4-yl)-1,2,4-oxadiazol-3-yl]phenyl}-N,N-dimethylmethanamine] yielded an EC50 (S1P1 [2]) of 9 nM and an EC50 (S1P3) of 486 nM.

`O=C(O)C1CN(Cc2ccc(-c3noc(-c4cnn(C5CCCCC5)c4-c4ccncc4)n3)cc2)C1` [Example 42, 1-{4-[5-(1-cyclohexyl-5-pyridin-4-yl-1H-pyrazol-4-yl)-1,2,4-oxadiazol-3-yl]benzyl}azetidine-3-carboxylic acid] showed an EC50 (S1P1 [2]) of 1 nM and an EC50 (S1P3) of 1020 nM.

In the case of `C[C@@H]1CCCC[C@@H]1n1ncc(-c2nc(-c3cc(F)ccc3F)no2)c1-c1ccccc1` [Example 47, 3-(2,5-difluorophenyl)-5-{1[(1S,2R)-2-methylcyclohexyl]-5-phenyl-1H-pyrazol-4-yl}-1,2,4-oxadiazole], the EC50 (S1P1 [2]) is reported as 8 nM and the EC50 (S1P3) is reported as 571 nM.

`CC(C)(C)Cn1ncc(-c2nc(-c3ccc(CN4CC(C(=O)O)C4)cc3)no2)c1-c1ccncc1` [Example 105, 1-(4-(5-(1-neopentyl-5-(pyridin-4-yl)-1H-pyrazol-4-yl)-1,2,4-oxadiazol-3-yl)benzyl)azetidine-3-carboxylic acid] was tested, and the Ki (S1P1 [1]) was 34 nM and the EC50 (S1P1 [2]) was 42 nM.

`COCc1c(-c2nc(-c3ccc(COCCCC(=O)O)cc3)no2)cnn1C1CCCCC1` [Example 133, 4-(4-(5-(1-cyclohexyl-5-(methoxymethyl)-1H-pyrazol-4-yl)-1,2,4-oxadiazol-3-yl)benzyloxy)butanoic acid] was tested, and the Ki (S1P1 [1]) was 122 nM.

Work on `COCc1c(-c2nc(-c3ccc(OCCCC(=O)O)cc3)no2)cnn1C1CCCCC1` [Example 134, 4-(4-(5-(1-cyclohexyl-5-(methoxymethyl)-1H-pyrazol-4-yl)-1,2,4-oxadiazol-3-yl)Phenoxy)butanoic acid] yielded a Ki (S1P1 [1]) of 128 nM.

For `COCc1c(-c2nc(-c3cccc(COCC(=O)O)c3)no2)cnn1C1CCCCC1` [Example 135, {3-[5-(1-Cyclohexyl-5-methoxymethyl-1H-pyrazol-4-yl)-[1,2,4]oxadiazol-3-yl]-benzyloxy}-acetic acid], the Ki (S1P1 [1]) was 41.5 nM.

`c1cc(-c2c(-c3nc(-c4ccc(Cn5ccnc5)cc4)no3)cnn2C2CCCCC2)ccn1` [Example 136, 4-{2-Cyclohexyl-4-[3-(4-imidazol-1-ylmethyl-phenyl)-[1,2,4]oxadiazol-5-yl]-2H-pyrazol-3-yl}-pyridine] was tested, and the EC50 (S1P3) was 58.3 nM.

In the case of `c1cnn(Cc2ccc(-c3noc(-c4cnn(C5CCCCC5)c4-c4ccncc4)n3)cc2)c1` [Example 137, 4-{2-Cyclohexyl-4-[3-(4-pyrazol-1-ylmethyl-phenyl)-[1,2,4]oxadiazol-5-yl]-2H-pyrazol-3-yl}-pyridine], the Ki (S1P1 [1]) is reported as 5.16 nM.

In the case of `COCc1c(-c2nc(-c3cccc(CO)c3)no2)cnn1C1CCCCC1` [Example 138], the Ki (S1P1 [1]) is reported as 25 nM.

`COCc1c(-c2nc(-c3ccc(CCC(=O)O)cc3)no2)cnn1C1CCCCC1` [Example 139] showed a Ki (S1P1 [1]) of 393 nM.

`COCc1c(-c2nc(-c3cccc(COCCC(=O)O)c3)no2)cnn1C1CCCCC1` [Example 141] was tested, and the Ki (S1P1 [1]) was 180 nM.

Work on `COCc1c(-c2nc(-c3cccc(/C=C/C(=O)O)c3)no2)cnn1C1CCCCC1` [Example 142] yielded a Ki (S1P1 [1]) of 191 nM.

Work on `COCc1c(-c2nc(-c3cccc(COCC(=O)O)c3)no2)cnn1C1CCCCC1` [Example 143] yielded a Ki (S1P1 [1]) of 41.5 nM.

`COCc1c(-c2nc(-c3cccc(OCCCC(=O)O)c3)no2)cnn1C1CCCCC1` [Example 144] was tested, and the Ki (S1P1 [1]) was 31 nM.

Work on `COCc1c(-c2nc(-c3cccc(CCC(=O)O)c3)no2)cnn1C1CCCCC1` [Example 145] yielded a Ki (S1P1 [1]) of 116 nM.

`COCc1c(-c2nc(-c3ccc(C(=O)NCCC(=O)O)cc3)no2)cnn1C1CCCCC1` [Example 146] was tested, and the Ki (S1P1 [1]) was 9.9 nM.

Work on `COCc1c(-c2nc(-c3cccc(C(=O)NCCC(=O)O)c3)no2)cnn1C1CCCCC1` [Example 147] yielded a Ki (S1P1 [1]) of 257 nM.

Work on `c1cnn(Cc2ccc(-c3noc(-c4cnn(C5CCCCC5)c4-c4ccncc4)n3)cc2)c1` [Example 149] yielded a Ki (S1P1 [1]) of 5.2 nM.

In the case of `c1cc(-c2c(-c3nc(-c4ccc(Cn5ncnn5)cc4)no3)cnn2C2CCCCC2)ccn1` [Example 150], the Ki (S1P1 [1]) is reported as 3.4 nM.

For `c1cc(-c2c(-c3nc(-c4ccc(CCn5cncn5)cc4)no3)cnn2C2CCCCC2)ccn1` [Example 151], the Ki (S1P1 [1]) was 4.6 nM.

`N#CCc1ccc(-c2noc(-c3cnn(C4CCCCC4)c3-c3ccncc3)n2)cc1` [Example 152] was tested, and the Ki (S1P1 [1]) was 3.3 nM.

`O=C(O)c1cnn(Cc2ccc(-c3noc(-c4cnn(C5CCCCC5)c4-c4ccncc4)n3)cc2)c1` [Example 153] was tested, and the Ki (S1P1 [1]) was 28 nM.

Work on `c1cc(-c2c(-c3nc(-c4ccc(Cc5nnn[nH]5)cc4)no3)cnn2C2CCCCC2)ccn1` [Example 154] yielded a Ki (S1P1 [1]) of 76 nM.

In the case of `c1cc(-c2c(-c3nc(-c4ccc(Cn5cnnn5)cc4)no3)cnn2C2CCCCC2)ccn1` [Example 155], the Ki (S1P1 [1]) is reported as 6 nM.
